From patent publication EP0369035A1, “AGENT FOR TREATING PANCREATITIS OR THE LIKE” (priority 1988, dated 1989)

What was measured:
[1] = test system: experimental pancreatitis; assay: Effect on experimental pancreatitis (sodium taurochorate + trypsin into the common bile duct), survival ratio; type: in vivo, SD-rats; set-up: Effect on experimental pancreatitis (100 mg/kg p.o.) After 24 hours / Effect on experimental pancreatitis (100 mg/kg p.o.) After 48 hours / Effect of existing control drug on experimental pancreatitis After 24 hours: unit not given here; settings: survival ratio, 50 μg/kg/min x 80 min, rat
From the text: [II] Effect on experimental pancreatitis
SD-rats, body weight of about 200 g were, starved overnight, and 10 to 24 animals were used in one group. Sodium pentobarbital was intraperioneally administered to anesthetize each rat, and then a cannula was inserted to the femoral vein for the administration of the test substance. After abdominal surgery, the bile duct was blocked at a part thereof proximate to the liver, by a clip, a polyethylene tube was inserted to the common bile duct at a part thereof most proximate to the duodenum, and 0.1 ml of solution containing 2 mg sodium taurochorate and 1000 U trypsin dissolved in physiological saline was injected retrogrodely. After removal of the clip and tube, the common bile duct was ligated and the abdomen was closed. Note, the test substance was dissolved in an injective 5% glucose solution, and in the case of a continuous infusion, the solution was administered over 80 minutes starting from 10 minutes before the generation of pancreatitis. In the case of oral administration, the test substance was administered through an oral catheter 30 minutes before the generation of pancreatitis. After 24 hours and 48 hours from the generation of pancreatitis, the survival ratio of the animals was calculated and compared with a control group.

[2] = in vivo; settings: mouse, intravenous, ICR male mice, up-and-down method, read-out: Acute toxicity (LD50)
Description: ICR male mice 5 to 10 weeks old were used. The test substance was dissolved in a 5% dimethylsulfoxide aqueous solution, and the solution was intravenously administered in an amount of 0.1 to 0.2 ml/10 g body weight. An LD50 value was calculated by up-and-down method.

[3] = biological target: T1, human plasma kallikrein (Homo sapiens, UniProt P03952); assay: Anti-plasma kallikrein activity: inhibition of S-2302 degradation; type: biochemical; settings: substrate S-2302, 37°C, pH 7.8; read-out: Plasma kallikrein S-2302 (I50)
T1 construct: 50 µl of 0.12 units/ml human plasma kallikrein solution
Description: 2) Assay of anti-plasma kallikrein activity Assay method of inhibition of S-2302 degradation
(§1) The test substance was dissolved in a 0.05 M Tris-HC1 (pH 7.8) buffer to make a total volume of 400 µl, and 50 µl of a 2 mM S-2302 solution was added to the solution. After incubation at 37°C for 5 minutes in an incubator, an addition of 50 µl of 0.12 units/ml human plasma kallikrein solution, and incubation at 37°C for 5 minutes, the reaction was terminated by an addition of 50 µl of 50% acetic acid.

[4] = biological target: T2, bovine factor Xa (Bos taurus, UniProt P00743); assay: Anti-FXa activity: inhibition of S-2222 degradation; type: biochemical; settings: Table 3-2, existing control drugs; substrate printed as S-2238; read-out: FXa S-2238 (I50)
T2 construct: 0.05 ml of 0.3 vial/ml bovine factor Xa

[5] = biological target: human urokinase (Homo sapiens, UniProt P00749); assay: Anti-urokinase activity: inhibition of S-2444 degradation; type: biochemical; settings: substrate S-2444, 37°C, pH 8.8; read-out: Urokinase S-2444 (I50)
Description: 3) Assay of anti-urokinase activity Assay method of inhibition of S-2444 degradation
as §1, with “8.8)” for “7.8)”, “1” for “2”, “S-2444” for “S-2302”, “mixture.” for “solution.”, “500” for “0.12”, “urokinase” for “plasma kallikrein”

[6] = Measurement of half life in blood; type: in vivo; settings: rat, iv; administered to the tail vein, SD-rats, plasma, HPLC
Description: [VI] Measurement of half life in blood
SD-rats 6 to 7 weeks old were used. The test substance was dissolved in an injective 5% glucose solution and administered to the tail vein. After the administration, blood samples were periodically obtained from the great vein and placed into heparinized test tubes. Plasma was separated by centrifugation and the test substance was extracted with ethyl acetate. After removal of the solvent, the residue was dissolved in 200 µl of methanol, and analyzed by high performance liquid chromatography. From the change of the concentration of the test substance in blood with time, a half life thereof in blood was calculated.

T2 sequence (P00743 234-492 limits assumed): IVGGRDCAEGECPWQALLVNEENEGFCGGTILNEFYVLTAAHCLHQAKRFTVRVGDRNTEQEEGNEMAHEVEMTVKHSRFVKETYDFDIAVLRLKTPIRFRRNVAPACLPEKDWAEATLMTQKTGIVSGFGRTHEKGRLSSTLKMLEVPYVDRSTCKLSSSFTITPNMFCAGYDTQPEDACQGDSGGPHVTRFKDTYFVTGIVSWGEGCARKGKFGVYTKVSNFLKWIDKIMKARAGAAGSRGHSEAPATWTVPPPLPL
T2 sequence (P00743 41-180 partner limits assumed): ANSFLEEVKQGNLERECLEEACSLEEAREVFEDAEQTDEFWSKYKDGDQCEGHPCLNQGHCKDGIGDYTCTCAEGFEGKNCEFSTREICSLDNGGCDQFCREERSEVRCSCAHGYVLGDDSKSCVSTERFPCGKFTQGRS
T1 sequence (P03952 391-638 limits assumed): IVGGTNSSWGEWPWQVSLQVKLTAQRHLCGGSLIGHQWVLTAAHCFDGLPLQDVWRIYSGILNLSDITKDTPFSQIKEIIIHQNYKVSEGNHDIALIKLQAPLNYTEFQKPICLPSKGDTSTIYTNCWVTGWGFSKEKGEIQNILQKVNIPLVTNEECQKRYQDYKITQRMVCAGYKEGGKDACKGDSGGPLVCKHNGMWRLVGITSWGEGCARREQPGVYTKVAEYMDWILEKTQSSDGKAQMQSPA
T1 sequence (P03952 20-390 partner limits assumed): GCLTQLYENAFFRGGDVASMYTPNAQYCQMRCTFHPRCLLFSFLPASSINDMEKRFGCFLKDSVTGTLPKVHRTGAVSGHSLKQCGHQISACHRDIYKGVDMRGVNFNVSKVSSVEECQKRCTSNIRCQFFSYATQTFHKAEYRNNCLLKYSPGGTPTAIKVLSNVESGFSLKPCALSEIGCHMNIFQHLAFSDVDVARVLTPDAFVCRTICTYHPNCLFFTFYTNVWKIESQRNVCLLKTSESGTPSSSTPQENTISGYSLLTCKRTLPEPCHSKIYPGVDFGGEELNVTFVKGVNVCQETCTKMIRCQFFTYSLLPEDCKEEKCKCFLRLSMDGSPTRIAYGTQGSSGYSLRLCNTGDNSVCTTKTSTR

**Q.** With `N=C(N)c1ccc2cc(OC(=O)c3ccc(N=C(N)N)cc3)ccc2c1` [FUT-175, nafamostat mesilate, reference compound] as the compound, how does the “Effect of existing control drug on experimental pancreatitis After 24 hours” value [1] read?
**A.** Its value is 33.3.

**Q.** What about the LD50 [2] of the same compound?
**A.** The LD50 was 24 mg/kg.

**Q.** And the IC50 [3]?
**A.** The IC50 was 80 nM.

**Q.** What about the IC50 [4] of the same compound?
**A.** The IC50 was 5.8 µM.

**Q.** What about the IC50 [5] of the same compound?
**A.** The IC50 was 10 nM.

**Q.** And the half-life [6]?
**A.** Its half-life is 2 to 3 min.
